# Laboratory results from patent US20060069132A1, “Azolecarboxamide herbicides” (priority 2004, published 2006).
# Legend:
# [1] = test system: windgrass; assay: Test F pre-/postemergence herbicide test; assay type: in vivo, Apera spica-venti; details: 125 g ai/ha
# Source text: (§1) Seeds of plant species selected from annual blugrass (Poa annua L.), blackgrass (Alopecurus myosuroides Huds.), catchweed bedstraw (Gallium aparine L.), common chickweed (Stellaria media (L.) Vill./Cyr.), downy bromegrass (Bromus tectorum L.), green foxtail (Setaria viridis (L.) Beauv.), Italian ryegrass (Lolium multiflorum Lam.), kochia (Kochia scoparia (L.). Schrad.), lambsquarters (Chenopodium album L.), littleseed canarygrass (Phalaris minor Retz.), pigweed (Amaranthus retroflexus L.), Russian thistle (Salsola kali L. ssp. Ruthenica (Iljin) Soo), wild buckwheat (Polygonum convolvulus L.), wild mustard (Sinapis arvensis L.), wild oat (Avena fatua L.), windgrass (Apera spica-venti (L.) Beauv.), winter barley (Hordeum vulgare L.), and wheat (Triticum aestivum L.) were planted and treated preemergence with test chemicals formulated in a non-phytotoxic solvent mixture which included a surfactant.
# (§2) At the same time, plants selected from these crop and weed species were treated with postemergence applications of some of the test chemicals formulated in the same manner. Plants ranged in height from 2 to 18 cm (1- to 4-leaf stage) for postemergence treatments. Treated plants and controls were maintained in a greenhouse for 12 to 14 days, after which time all species were compared to controls and visually evaluated. […]
# [2] = test system: wild buckwheat; assay: Test F pre-/postemergence herbicide test; assay type: in vivo, Polygonum convolvulus; details: 125 g ai/ha
# Source text: as §1, §2
# [3] = test system: Russian thistle; assay: Test F pre-/postemergence herbicide test; assay type: in vivo, Salsola kali; details: 125 g ai/ha
# Source text: as §1, §2
# [4] = test system: cocklebur (XANST); assay: Test J Compounds 2 and 6 alone and in combination with other herbicides, foliage spray; assay type: in vivo, Xanthium strumarium; set-up: key: 0 = no effect, 100 = complete control; details: applied alone
# How it was run: (§3)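 Visual control rating (0 = no effect, 100 = complete control), mean of three replicates, scored 15 days after a 541 L/ha foliar spray of 1- to 4-leaf plants. Mixture expectations derived with Colby's Equation from the single-component effects at matching rates.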
# [5] = test system: morningglory (IPOCO); assay: as above; assay type: in vivo, Ipomoea coccinea; set-up: key: 0 = no effect, 100 = complete control; details: applied alone
# How it was run: as §3
# [6] = test system: giant foxtail (SETFA); assay: as above; assay type: in vivo, Setaria faberi; set-up: key: 0 = no effect, 100 = complete control; details: applied alone
# How it was run: as §3
# [7] = test system: wheat (TRZAS); assay: as above; assay type: in vivo, Triticum aestivum; set-up: key: 0 = no effect, 100 = complete control; details: applied alone
# How it was run: as §3
# [8] = test system: wild oat (AVEFA); assay: as above; assay type: in vivo, Avena fatua; set-up: key: 0 = no effect, 100 = complete control; details: applied alone
# How it was run: as §3
# [9] = test system: corn (ZEAMD); assay: as above; assay type: in vivo, Zea mays; set-up: key: percentage herbicidal effect (observed); details: applied alone
# How it was run: as §3
# [10] = test system: blackgrass (ALOMY); assay: as above; assay type: in vivo, Alopecurus myosuroides; set-up: key: 0 = no effect, 100 = complete control; details: applied alone
# How it was run: as §3
# [11] = test system: large crabgrass (DIGSA); assay: as above; assay type: in vivo, Digitaria sanguinalis; set-up: key to DIGSA Obsd.: 0 = no effect, 100 = complete control; details: for DIGSA Obsd.: applied alone; for observed effect of mixture compared with additive effect expected from Colby's Equation: crabgrass, foliage spray, 15 days after treatment
# How it was run: as §3
# [12] = test system: barnyardgrass (ECHCG); assay: as above; assay type: in vivo, Echinochloa crus-galli; set-up: key: percentage herbicidal effect (observed); details: applied alone
# Source text: Colby's Equation was used to calculate the expected additive herbicidal effect of the mixtures of Compound 6 with Harmony® Extra (i.e. a 2:1 mixture by weight of thifensulfuron-methyl and tribenuron-methyl). Colby's Equation (Colby, S. R. “Calculating Synergistic and Antagonistic Responses of Herbicide Combinations,” Weeds, 15(1), pp 20-22 (1967)) calculates the expected additive effect of herbicidal mixtures, and for two active ingredients is of the form: Pa+b=Pa+Pb−(PaPb/100) wherein • Pa+b is the percentage effect of the mixture expected from additive contribution of the individual components, • Pa is the observed percentage effect of the first active ingredient at the same use rate as in the mixture, and • Pb is the observed percentage effect of the second active ingredient at the same use rate as in the mixture.
# Seeds of test plants consisting of barnyardgrass (ECHCG; Echinochloa crus-galli (L.) Beauv.), blackgrass (ALOMY; Alopecurus myosuroides Huds.), Surinam grass (BRADC; Urochloa decumbens (Staph) R. D. Webster, previously named Brachiaria decumbens Stapf), cocklebur (XANST, Xanthium strumarium L.), corn (ZEAMD, Zea mays L. cv. ‘Pioneer 33G26’), large crabgrass (DIGSA, Digitaria sanguinalis (L.) Scop.), giant foxtail (SETFA, Setaria faberi Herrm.), lambsquarters (CHEAL, Chenopodium album L.), morningglory (IPOCO, Ipomoea coccinea L.), pigweed (AMARE, Amaranthus retroflexus L.), velvetleaf (ABUTH, Abutilon theophrasti Medik.) wheat (TRZAS, Triticum aestivum L. cv. ‘Recital’) and wild oat (AVEFA, Avena fatua L.) were planted in Redi-Earth® planting medium (Scotts Company, 14111 Scottslawn Road, Marysville, Ohio 43041) comprising spaghnum peat moss and vermiculite. Seeds of small-seeded species were planted about 1 cm deep; larger seeds were planted about 2.5 cm deep. Plants were grown in a greenhouse using supplemental lighting to maintain a photoperiod of about 14 hours; daytime and nighttime temperatures were about 24-30° C. and 22-25° C., respectively. Balanced fertilizer was applied through the watering system. The plants were grown for 7 to 11 days so that at time of treatment the plants ranged in height from 2 to 18 cm (1- to 4-leaf stage). Treatments consisted of Compounds 2 and 6 (technical material), atrazine (90DF), terbacil (Sinbar® 80DF), hexazinone (Velpar® 75WG), diuron (Karmex® 80WP) and paraquat (Gramoxone® Extra, 37%) alone and in combination, suspended or dissolved in an aqueous solvent comprising a nonionic surfactant and applied as a foliage spray using a volume of 541 L/ha. Each treatment was triply replicated. […] Treated plants and controls were maintained in the greenhouse and watered as needed with care to not wet the foliage for the first 24 hours after treatment. The effects on the plants 15 days after treatment were visually compared to untreated controls. Plant response ratings, listed in Table J as the means of the thee replicates, are based on a scale of 0 to 100 where 0 is no effect and 100 is complete control. Also listed in Table J are the expected effects for the mixtures calculated using Colby's Equation.
smiles,measurement,setting,value
CCc1nn(C(C)(C)C)cc1C(=O)Nc1cc(C(=O)N(CC)CC)ccc1F [Compound 223],"Plant response rating (0-100), Windgrass",[1]; Postemergence,50
same,"Plant response rating (0-100), Windgrass",[1]; Preemergence,100
same,"Plant response rating (0-100), Buckwheat, Wild",[2]; Postemergence,40
same,"Plant response rating (0-100), Buckwheat, Wild",[2]; Preemergence,55
same,"Plant response rating (0-100), Thistle",[3]; Postemergence,60
same,"Plant response rating (0-100), Thistle",[3]; Preemergence,60
"CCNC(=O)c1ccc(F)c(NC(=O)c2cc(C(C)(C)C)nn2CC)c1 [Compound 2, 3-(1,1-dimethylethyl)-1-ethyl-N-[5-[(ethylamino)carbonyl]-2-fluorophenyl]-1H-pyrazole-5-carboxamide]",XANST Obsd.,[4]; 62 g a.i./ha,50
same,XANST Obsd.,[4]; 125 g a.i./ha,58
same,IPOCO Obsd.,[5]; 62 g a.i./ha,17
same,IPOCO Obsd.,[5]; 125 g a.i./ha,27
same,SETFA Obsd.,[6]; 62 g a.i./ha,28
same,SETFA Obsd.,[6]; 125 g a.i./ha,32
same,TRZAS Obsd.,[7]; 62 g a.i./ha,8
same,TRZAS Obsd.,[7]; 125 g a.i./ha,10
same,AVEFA Obsd.,[8]; 62 g a.i./ha,8
same,AVEFA Obsd.,[8]; 125 g a.i./ha,15
same,ZEAMD Obsd.,[9]; 62 g a.i./ha,25
same,ZEAMD Obsd.,[9]; 125 g a.i./ha,65
same,ALOMY Obsd.,[10]; 62 g a.i./ha,15
same,ALOMY Obsd.,[10]; 125 g a.i./ha,13
same,DIGSA Obsd.,[11]; 62 g a.i./ha,5
same,DIGSA Obsd.,[11]; 125 g a.i./ha,15
same,observed effect of mixture compared with additive effect expected from Colby's Equation,[11]; mixture with diuron,greater than additive
same,observed effect of mixture compared with additive effect expected from Colby's Equation,[11]; mixture with terbacil,greater than additive
same,ECHCG Obsd.,[12]; 62 g a.i./ha,13
same,ECHCG Obsd.,[12]; 125 g a.i./ha,8
